Earlier results, collected in article PMC3131558, “Plitidepsin Has a Safe Cardiac Profile: A Comprehensive Analysis” (Marine Drugs, 2011).

Conditions: possible class effect of HDACI inhibitors; cited from earlier work
Source text: Plitidepsin has neither shown cardiac toxicity during preclinical/toxicology studies nor has been reported in early phase I clinical trials.

Row | Compound | Electrocardiogram (ECG) abnormalities
1 | O=C(/C=C/c1ccc(CN(CCO)CCc2c[nH]c3ccccc23)cc1)NO [LAQ824] | reported
2 | Cc1[nH]c2ccccc2c1CCNCc1ccc(/C=C/C(=O)NO)cc1 [LBH589] | reported
